# Laboratory results: patent US20200023001A1, “GlycoFix (Structurally And Functionally Repaired Endothelial Glycocalyx)” (Northeastern University, priority 2018, published 2020)
# What was measured:
# Type in all cases: cell-based, rat
# [1] = system: Cx-containing gap junctions of RFPEC; experiment: Lucifer Yellow scratch-loading dye transfer assay (gap junction communication)
# Description: (§1) Cell Culture. Rat fat pad ECs (RFPEC) at passages 20 to 39 were offspring of cells isolated from rat epididymal fat pad and provided by Dr. Mia Thi of Albert Einstein College of Medicine (Bronx, N.Y.). […] The RFPECs are immortalized, making it possible to use late passages. RFPEC were seeded on 12-14-mm diameter and 0.13-0.17-mm thick glass coverslips at a seeding density of 15,000-20,000 cells/cm^2. Cells were cultured in Dulbecco's Modified Eagle Medium (DMEM, Invitrogen, USA) with 1% penicillin-streptomycin (PS) and 10% fetal bovine serum (FBS, Gibco Life Technologies). Cells were maintained in humidity at 37° C. and 5% CO2. RFPECs reached full confluence in 3 days.
# (§2) Cultured RFPECs produce thick and robust GCX in this time period. At 3 days post-seeding the RFPECs' culture medium was supplemented with 1% BSA in place of FBS to stabilize the GCX during preservation and immunolabeling (described below). For enzyme treatment experiments, 25 micro-international units per milliliter (μIU/ml) of heparinase III (Hep III; IBEX, Canada) were added to BSA-containing culture media for 2 hours to degrade HS from the GCX [46]. HepIII was washed out, and the wash-out was followed by a 16-hour incubation of RFPECs in regular BSA-containing media. In self-recovery experiments, RFPEC GCX was left to recover for 24 hours after enzyme degradation. The time frame was chosen in accordance with the 20-hour time period that is required for HS restoration to occur on the surface of ECs. For HS recovery experiments, exogenous HS and/or S1P were applied for 16 hours to accommodate the communication test as an assessment of functional glycocalyx recovery. […] After HS was degraded with HepIII, it was replaced by a 16-hour feeding of RFPECs with 59 μg/ml exogenous porcine mucosal HS (Celsus, Cincinnati, Ohio), based on published serum concentration of HS [43]. In sphingosine-1-phosphate experiments, culture media containing enzyme was substituted for media containing either 10 μM of S1P (Sigma-Aldrich) or a combination of 59 μg/ml of HS and 10 μM of S1P for 16 hours after enzyme degradation.
# Dye transfer assay, fluorescence microscopy and image analysis. Gap junction functionality was assessed by loading Lucifer Yellow in RFPECs, using a scratch technique, and observing the extent of Lucifer Yellow transfer from loaded cells to neighboring cells (FIG. 7B). Lucifer Yellow has a molecular weight of 457.3 and can only enter cells via broken membranes or via gap junctions. The scratch loading technique involved pre-incubation of RFPECs (for 1 minute) with calcium- and magnesium-free Hanks' Balanced Salt Solution (HBSS; Life Technology) containing 5 mg/ml Lucifer Yellow dye (Life Technology). A 5-μm diameter tip scribe (Ted Pella, Inc, USA) was then used to carefully create a straight scratch in the RFPEC monolayer and to allow the dye to enter the scratched cells. After the dye was loaded, it spread via open gap junctions to adjacent intact cells, with the extent of Lucifer Yellow spread reaching a plateau by 10 minutes after loading. At that point, excess dye was washed out and RFPECs were imaged at 10× magnification (dry objective) using a Zeiss Observer Z1 fluorescence microscope. From recorded images of dye transfer after scratch loading, ImageJ randomly selected dye spread locations that would be quantified along the scratch. At those random locations, lines perpendicular to the scratch axis were drawn, and the intact fluorescent cells (scratched cells excluded) were counted. […]
# [2] = system: heparan sulfate (HS) of RFPEC glycocalyx; experiment: HS expression (coverage) in RFPEC glycocalyx by immunofluorescence confocal microscopy (Example 1)
# Description: as §1, §2
# Immunostaining. RFPECs have high affinity to most antibodies that are available for performing immunocytochemistry. For heparan sulfate (HS), RFPEC monolayers were treated with 2% paraformaldehyde/1% glutaraldehyde in phosphate buffered saline (PBS) for fixation, treated with 2% goat serum in PBS to block non-specific ligands, and stained for three nights at 4° C. with a 1:100 10E4-epitope HS antibody (Amsbio).
# As specified by the manufacturer, the HS antibody reacts with many types of heparan sulfate. The reactivity of the HS antibody is abolished after treatment with Hep III, indicating antibody specificity. […]
# Cx43 at RFPEC borders = experiment: Cx43 expression at EC borders, immunostaining and confocal microscopy
# Description: as §1, §2
# As specified by the manufacturer, the HS antibody reacts with many types of heparan sulfate. The reactivity of the HS antibody is abolished after treatment with Hep III, indicating antibody specificity. For secondary detection of HS, Alexa Flour 488 conjugated goat anti-mouse IgG/IgM (H+L; Life Technologies) secondary antibody was used. RFPECs to be processed for connexin 43 (Cx43) were fixed in 4% paraformaldehyde, permeabilized in 0.2% Triton X-100 (Fisher), and blocked in 5% goat serum combined with 0.2% Triton X-100. Connexin 43 staining was performed overnight at 4° C. with 1:100 mouse monoclonal Cx43 antibody (Millipore). […] Secondary Cx43 detection was done with Alexa Flour 488 conjugated goat anti-mouse IgG. […] These controls confirmed that the staining observed in the RFPECs is not an artefact.
# Confocal immunofluorescence microscopy imaging and analysis. Alexa Fluor 488 fluorescent RFPECs were mounted with Vectashield containing DAPI (Vector Labs) and imaged with a Zeiss LSM 700 laser scanning confocal microscope. HS and Cx43 were imaged at 63× magnification (oil objective) and 40× magnification (oil objective), respectively. Lasers with excitation wavelengths of 490 nm (for HS or Cx43) and 350 nm (for DAPI) were used to obtain XY-plane slices. Laser gain and transmission were kept below fluorophore saturation levels. Confocal slice intervals were 0.2 μm for HS and 0.7 μm for Cx43. […]
# [3] = RFPEC, Hep III, then 16 h with or without 59 μg/ml HS and/or 10 μM S1P, mean±SEM
# [4] = after Hep III, HS 59 μg/ml, S1P 10 μM
Compound,"effect of actin disruption on cell-to-cell movement of Lucifer Yellow dye ([1]; preliminary studies, data not shown)","HS expression in GCX, result in words (FIG. 2 legend) ([2]; 25 μIU/ml Hep III, HS 59 μg/ml, S1P 10 μM)","HS coverage of cell surfaces ([2]; RFPEC, Hep III 2 hours, probed 16 hours after, with or without 59 μg/ml exogenous HS and/or 10 μM S1P for the 16 hours, mean±SEM)","Lucifer Yellow dye spread, neighboring cells receiving dye per scratch-loaded cell [1, 3]","Lucifer Yellow dye transfer, result in words (FIG. 4 legend) [1, 4]",Cx43 distribution along the perimeter of the cells (Cx43 at RFPEC borders; [3]),"Cx43 distribution/expression, result in words (FIG. 3 legend) (Cx43 at RFPEC borders; [4])"
C=C1[C@@H](C)[C@H]2[C@H](Cc3ccccc3)NC(=O)[C@]23[C@H](OC(C)=O)/C=C/[C@@](C)(O)C(=O)[C@@H](C)C/C=C/[C@H]3[C@@H]1O [cytochalasin D],bars cell-to-cell movement of Lucifer Yellow dye,,,,,,
"CCCCCCCCCCCCC/C=C/[C@@H](O)[C@@H](N)COP(=O)(O)O [S1P, sphingosine-1-phosphate]",,"significantly recovered the expression of HS in GCX, back to baseline conditions",71.97±5.02%,2.06±0.08 cells,did not improve cell-to-cell communication,34.81±5.16%,did not show a significant restoration of Cx43 expression
